Source: publication PMC3828642 (AoB Plants, 2013)

Tests used:
Format in all cases: biochemical
[1] = target: T1, 1-aminocyclopropane-1-carboxylic acid oxidase (ACCO1) (Malus domestica, UniProt Q00985); experiment: steady-state kinetics, competitive activation (Ka), double reciprocal plot; set-up: purified recombinant ACCO
[2] = target: T1, 1-aminocyclopropane-1-carboxylic acid oxidase (ACCO1); experiment: steady-state kinetics, ethylene assay by GC; set-up: purified ACCO fusion protein
[3] = target: T1, 1-aminocyclopropane-1-carboxylic acid oxidase (ACCO1); experiment: steady-state kinetics (data not shown)
[4] = target: T1, 1-aminocyclopropane-1-carboxylic acid oxidase (ACCO1); experiment: steady-state kinetics, ethylene assay by GC, double reciprocal plot; UV/Vis spectrum; set-up: His-Tag fusion protein expressed in E. coli

T1 sequence (Q00985 whole entry, the tested form may be a part): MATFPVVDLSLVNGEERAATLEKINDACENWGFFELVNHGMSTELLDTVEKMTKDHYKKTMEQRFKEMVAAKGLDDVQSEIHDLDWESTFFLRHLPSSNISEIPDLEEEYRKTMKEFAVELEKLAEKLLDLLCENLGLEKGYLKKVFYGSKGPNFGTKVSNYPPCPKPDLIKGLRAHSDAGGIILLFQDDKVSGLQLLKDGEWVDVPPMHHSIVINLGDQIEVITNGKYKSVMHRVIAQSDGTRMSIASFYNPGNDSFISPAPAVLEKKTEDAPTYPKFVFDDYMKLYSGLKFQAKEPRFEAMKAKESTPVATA

`O=c1[nH]c(=O)c2nccnc2[nH]1` [2,4-pteridinediol] was tested, and the “steady-state kinetics, competitive activation (Ka), double reciprocal plot” value [1] was 2.2 mM.

For `O=C(O)[C@@H](O)[C@H]1OC(=O)[C@H](O)[C@H]1O` [D-Saccharic acid 1,4-lactone], the Ki [2] was 300 µM.

With `O=C(O)CC(=O)O` [Malonic acid] the Ki [3] was 70 µM.

Work on `O=C(O)CC(=O)C(=O)O` [Oxaloacetic acid] yielded a Ki [3] of 930 µM.

`Cc1ncc(COP(=O)(O)O)c(C=O)c1O` [Pyridoxal-5′-phosphate] gave a Ki [4] of 200 µM.
